# From patent US5661182A, “Method for lowering oxygen affinity of hemoglobin in redcell suspensions, in whole blood and in vivo” (Virginia Commonwealth University, priority 1995, dated 1997)
# Entries after “also recorded” stand apart in the source; their conditions may differ.
# How the values were obtained:
# purified Hb Yakima = assay: Effect on purified Hb Yakima; format: biochemical, human
# [1] = biological target: hemoglobin in fresh human red blood cells (Homo sapiens, UniProt P68871+P69905); assay: Oxygen equilibrium curves of fresh human red cell suspensions (p50); format: cell-based; conditions: presence of DIDS
# Experimental: Human blood was collected on heparin from healthy nonsmoking donors. Bovine blood was provided by Pr Delpech, INA (Paris-Grignon). Red blood cells were washed three times in isotonic buffer, kept at 4° C., and used within 24 h after sampling. Hemoglobin Yakima, a high-oxygen-affinity variant [α2 β2 99 (G1) Asp>>His], was obtained from a known heterozygous carrier. Fresh Yakima red cells were processed in the same way as described above.
# L3,5 and L3,4,5 were provided by Dr. Lalezari (Montefiore Hospital, New York); RSR-4 [2-[4-[[(3,5-dichloroanilino)carbonyl]methyl]phenoxy]-2-methylpropionic acid]and RSR13 [2-4-[[(3,5- dimethylanilino)carbonyl]methyl]phenoxy]-2-methylpropionic acid] have been synthesized following the procedure described in Randad et al. (J. Med. Chem. 34,752 (1991)). Human serum albumin (HSA), bovine serum albumin (BSA) and 4,4'diisothiocyanatostilbene-2,2'-disulfonate (DIDS) were purchased from Sigma (St. Louis, Mo.). Due to their low solubility in aqueous buffer, 10 mM stock solutions of the compounds were prepared in a slight exccess of sodium bicarbonate and back-titrated to pH 7.4. For example, RSR-4 or RSR-13 was dissolved at 60° C. in a 140 mM NaCl and 50 mM bis-Tris buffer at room temperature upon progressive addition of NaHCO3 to obtain 10 mM stock solutions. The pH was carefully adjusted to 7.4 after complete solubilization and before use of the solutions. Fresh solutions were prepared each week. Stock solutions of DIDS (1 mM) were prepared, in the dark, on the day of the experiments in a pH 7.4 buffer. Human serum albumin (defatted HSA) and bovine serum albumin (BSA) were prepared freshly as 1 mM stock solutions, pH 7.4. Equilibrium Measurements. The allosteric modulation of the effectors on freshly prepared solutions of hemoglobin or red cell suspensions was measured by the change in p50, the partial pressure of oxygen for half-saturation. Oxygen equilibrium curves (OEC) were carried out with the Hemox analyzer (TCS, Southampton, Pa.) under the following conditions: pH 7.4, 140 mM NaCl and 50 mM bis-Tris buffer at 37° C. In all experiments, the concentration of hemoglobin in the red cell suspensions was 20-25 μM hemoglobin tetramer (Hb4) as measured by Drabkin's method (cyanomethemoglobin) at the end of each recording. The final concentration of the allosteric effector in the cuvette was 0.5 mM, resulting in an effector/Hb4 ratio of 20 in the absence of albumin. OEC were also made in the same buffer containing 12.5, 25, 50, and 100 μM HSA (for human red cell suspensions) or BSA (for bovine cell suspensions). The serum albumin experiments were carried out with traces of an antifoaming agent. This agent has no deleterious effect on the red cell suspensions. The molar ratio of albumin to tetrameric hemoglobin was varied from 0.5 (at 12.5 μM HSA) to 4 (at 100 μM HSA); in whole blood this ratio is approximately 0.3 (0.7 mM albumin plus plasma proteins/2.25 mM Hb4). Therefore, the concentration of albumin used in the present studies was always larger relative to tetrameric hemoglobin than that found in whole blood.
# Equilibrium oxygen binding curves were also recorded for red cell suspensions (10% hematocrit) that had been reacted for 30 min in the dark at 37° C. with 20 μM DIDS, a specific inhibitor of the red cell membrane anion channel. Kinetic Experiments. The kinetics of the interaction between the effectors and intracellular hemoglobin were measured in the absence and presence of varying concentrations of HSA. The red cell suspensions were equilibrated under room air (pO2 =140 mmHg) at 37° C. in the optical cuvette of the Hemox analyzer, which provides a constant stirring of the suspensions. […] Changes in absorbance were recorded and stored on tape for further analyses. […]
# deoxyhemoglobin [2] = biological target: T1, deoxyhemoglobin (Homo sapiens, UniProt P68871+P69905); assay: X-ray crystallographic studies with deoxyhemoglobin; format: binding; conditions: near Arg 104β
# Experimental: X-ray Crystallographic Studies. Hemoglobin for the crystal studies was prepared from human blood, and T-state deoxy crystals were obtained from ammonium sulfate solutions. RSR-4 or RSR-13 (2 effectors/I Hb) was dissolved in a slight excess of sodium bicarbonate to facilitate dissolution and was added to a 6 g % solution of deoxy-Hb in the glove box. A 1 g % Hb RSR-4 or RSR-13 solution was added to each crystallization tube. Crystals grew in approximately 1 week. X-ray data were collected with Friedel pairs using ω scans on a Rigaku AFC5R diffractometer equipped with a rotating anode and a 60-cm long evacuated beam tunnel. The crystals with allosteric effectors were isomorphous with native deoxy-Hb: RSR-4, 63.2, 83.7, and 53.8 Å, 99.4°; RSR-13, 63.2, 83.6, and 53.7 Å, 99.5°. Data collection (RSR-4 to 2.4-Å and RSR-13 to 2.8-Å resolution) was controlled by TEXAN software from Molecular Structure Corp. (The Woodlands, Tex.). There was little radiation damage to crystals, and new crystals were mounted when standard reference reflection intensities fell by 10%. All data were corrected for radiation damage when appropriate. The R-factors for the Friedel pairs and derivatives vs. native were as follows: RSR-4 (2.4 Å), 14.6% and 18.9%, and RSR-13 (2.8 Å), 7.2% and 12.5%, respectively. The difference electron density maps were obtained using the Cambridge computer programs (CCP4). […] The allosteric effector molecules were well resolved and easily fit to the difference density.
# hemoglobin [3] = assay: Comparison of allosteric effector strength (right shift of oxygen equilibrium curve); format: biochemical; conditions: compounds of FIG. 1
# bovine red cells = assay: Hemolysis of bovine red cells in vitro; format: cell-based
# human red cells = assay: Hemolysis of human red cells in vitro; format: cell-based
# hemoglobin [4] = conditions: hemoglobin solutions, fresh intact red cells; cited from earlier work
# deoxyhemoglobin [5] = biological target: T1, deoxyhemoglobin; conditions: X-ray, literature; cited from earlier work
# [6] = cited from earlier work
SMILES,state of purified Hb Yakima in the presence of effector (purified Hb Yakima),second symmetry-related pair of binding sites (deoxyhemoglobin [2]),allosteric effector strength (hemoglobin [3]),"lowering of oxygen affinity / allosteric potency (prior art, words) (hemoglobin [4])","binding site in deoxyhemoglobin (prior art, words) (deoxyhemoglobin [5])",other results
"O=C(O)C(COP(=O)(O)O)OP(=O)(O)O (stereo not shown) [DPG, 2,3-diphospho-glyceric acid]",remains locked in the high-affinity R-state,–,–,–,–,–
"CC(C)(Oc1ccc(NC(=O)Nc2cc(Cl)c(Cl)c(Cl)c2)cc1)C(=O)O [L3,4,5, reference compound]",remains locked in the high-affinity R-state,have a second symmetry-related pair of binding sites near Arg 104β,much stronger allosteric effect,–,–,effect of DIDS (anion channel inhibitor) on the effect of the compounds [1]: does not inhibit the effects of the compounds
CC(C)(Oc1ccc(CNC(=O)c2ccc(Cl)cc2)cc1)C(=O)O [MM-25],–,have a second symmetry-related pair of binding sites near Arg 104β,somewhat stronger than bezafibrate,–,–,–
Cc1cc(C)cc(NC(=O)Cc2ccc(OC(C)(C)C(=O)O)cc2)c1 [RSR-3],–,–,–,–,–,hemolysis (bovine red cells): No hemolysis; hemolysis (human red cells): No hemolysis
CC(C)(Oc1ccc(CCNC(=O)c2ccc(Cl)cc2)cc1)C(=O)O [bezafibrate],–,–,weakest effector; also recorded: much stronger allosteric effect,"much more effective in lowering the oxygen affinity of hemoglobin solutions and suspensions of fresh, intact red cells",bind to the same sites in the central water cavity of deoxyhemoglobin,"inhibition of effect by serum albumin (prior art, words) [6]: significantly inhibited by serum albumin"
CC(C)(Oc1ccc(Cl)cc1)C(=O)O [clofibric acid],–,–,only a relatively small effect in terms of lowering the oxygen affinity of hemoglobin,lowered the oxygen affinity of hemoglobin solutions,bind to the same sites in the central water cavity of deoxyhemoglobin,–
